Patent US7342014B2, “Diamine derivatives” (Daiichi Pharmaceutical Co., Ltd., priority 2001, dated 2008)
pIC50: −log10 of the molar value. Where a name gives a salt, the structure may show the parent alone. Read-outs that look alike come from different tables or passages of the source.

How the values were obtained:
[1] = target: T1, human FXa (Homo sapiens, UniProt P00742); assay: Determination of human FXa-inhibiting effect (IC50 value); assay type: biochemical
T1 construct: purchased Enzyme Research Labolatories, Inc
Description: Determination of Human FXa-inhibiting Effect (IC50 Value)
As a control, Tris buffer was used in place of the test compound.

[2] = human FXa, substrate S-2222, absorbance at 405 nm, room temperature, read-out: Human FXa-inhibiting effect (IC50)

T1 sequence (P00742 235-488 limits assumed): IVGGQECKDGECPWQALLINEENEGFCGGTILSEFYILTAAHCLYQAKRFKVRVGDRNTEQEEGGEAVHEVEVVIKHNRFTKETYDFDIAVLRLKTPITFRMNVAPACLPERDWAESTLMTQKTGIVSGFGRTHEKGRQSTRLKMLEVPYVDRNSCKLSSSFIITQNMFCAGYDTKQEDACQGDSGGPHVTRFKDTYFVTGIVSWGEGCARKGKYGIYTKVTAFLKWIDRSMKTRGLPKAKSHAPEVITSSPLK
T1 sequence (P00742 41-179 partner limits assumed): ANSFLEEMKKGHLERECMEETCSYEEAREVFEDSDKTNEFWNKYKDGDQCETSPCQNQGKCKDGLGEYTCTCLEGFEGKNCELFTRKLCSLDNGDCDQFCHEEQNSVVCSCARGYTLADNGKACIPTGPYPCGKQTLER

melting point | Compound | other results
178 to 184 °C (dec.) | COCC(COC)C(=O)N1CC[C@H](NC(=O)c2cc3cc(Cl)ccc3[nH]2)[C@H](NC(=O)c2nc3c(s2)CN(C)CC3)C1 (relative stereo) (as salt: hydrochloride) [Example 152, N-{(3R*,4S*)-4-{[(5-Chloroindol-2-yl)carbonyl]amino}-1-[3-methoxy-2-(methoxymethyl)propanoyl]piperidin-3-yl]-5-methyl-4,5,6,7-tetrahydrothiazolo[5,4-c]pyridine-2-carboxamide hydrochloride] | –
215 to 225 °C (dec.) | CN1CCc2nc(C(=O)N[C@@H]3CN(C(=O)c4ccccc4)CC[C@@H]3NC(=O)c3cc4cc(Cl)ccc4[nH]3)sc2C1 (relative stereo) (as salt: hydrochloride) [Example 154, N-((3R*,4S*)-1-benzoyl-4-{[(5-Chloroindol-2-yl)carbonyl]amino}piperidin-3-yl]-5-methyl-4,5,6,7-tetrahydrothiazolo[5,4-c]pyridine-2-carboxamide hydrochloride] | –
228 to 233 °C (dec.) | CN1CCc2nc(C(=O)N[C@@H]3CN(CCF)CC[C@@H]3NC(=O)c3cc4cc(Cl)ccc4[nH]3)sc2C1 (relative stereo) (as salt: hydrochloride) [Example 168, N-[(3R*,4S*)-4-{[(5-Chloroindol-2-yl)carbonyl]amino}-1-(2-fluoroethyl)piperidin-3-yl]-5-methyl-4,5,6,7-tetrahydro-thiazolo[5,4-c]pyridine-2-carboxamide dihydrochloride] | –
241 to 244 °C | CN1CCc2nc(C(=O)N[C@@H]3CS(=O)(=O)CC[C@@H]3NC(=O)c3cc4cc(Cl)ccc4[nH]3)sc2C1 (relative stereo) (as salt: hydrochloride) [Example 178, N-((3R*,4R*)-4-{[(5-Chloroindol-2-yl)carbonyl]amino}-1,1-dioxohexahydro-1-thiopyran-3-yl)-5-methyl-4,5,6,7-tetrahydrothiazolo[5,4-c]pyridine-2-carboxamide hydrochloride] | –
243 to 245 °C | CN1CCc2nc(C(=O)N[C@@H]3CS(=O)(=O)CC[C@@H]3NC(=O)c3cc4cc(F)ccc4[nH]3)sc2C1 (relative stereo) (as salt: hydrochloride) [Example 179, N-((3R*,4R*)-4-{[(5-Fluoroindol-2-yl)carbonyl]amino}-1,1-dioxohexahydro-1-thiopyran-3-yl)-5-methyl-4,5,6,7-tetrahydrothiazolo[5,4-c]pyridine-2-carboxamide hydrochloride] | –
242 to 247 °C | CN1CCc2nc(C(=O)N[C@@H]3CCS(=O)(=O)C[C@@H]3NC(=O)c3cc4cc(Cl)ccc4[nH]3)sc2C1 (relative stereo) (as salt: hydrochloride) [Example 180, N-((3R*,4R*)-3-{[(5-Chloroindol-2-yl)carbonyl]amino}-1,1-dioxohexahydro-1-thiopyran-4-yl)-5-methyl-4,5,6,7-tetrahydrothiazolo[5,4-c]pyridine-2-carboxamide hydrochloride] | –
244 to 249 °C | CN1CCc2nc(C(=O)N[C@@H]3CS(=O)(=O)CC[C@H]3NC(=O)c3cc4cc(Cl)ccc4[nH]3)sc2C1 (relative stereo) (as salt: hydrochloride) [Example 181, N-((3R*,4S*)-4-{[(5-Chloroindol-2-yl)carbonyl]amino}-1,1-dioxohexahydro-1-thiopyran-3-yl)-5-methyl-4,5,6,7-tetrahydrothiazolo[5,4-c]pyridine-2-carboxamide hydrochloride] | –
236 to 241 °C | CN1CCc2nc(C(=O)N[C@@H]3CS(=O)(=O)CC[C@H]3NC(=O)c3cc4cc(F)ccc4[nH]3)sc2C1 (relative stereo) (as salt: hydrochloride) [Example 182, N-((3R*,4S*)-4-{[(5-Fluoroindol-2-yl)carbonyl]amino}-1,1-dioxohexahydro-1-thiopyran-3-yl)-5-methyl-4,5,6,7-tetrahydrothiazolo[5,4-c]pyridine-2-carboxamide hydrochloride] | –
244 to 249 °C | CN1CCc2nc(C(=O)N[C@@H]3CCS(=O)(=O)C[C@@H]3NC(=O)c3cc4cc(F)ccc4[nH]3)sc2C1 (relative stereo) (as salt: hydrochloride) [Example 183, N-((3R*,4R*)-3-{[(5-Fluoroindol-2-yl)carbonyl]amino}-1,1-dioxohexahydro-1-thiopyran-4-yl)-5-methyl-4,5,6,7-tetrahydrothiazolo[5,4-c]pyridine-2-carboxamide hydrochloride] | –
190 °C (dec.) | CN1CCc2nc(C(=O)N[C@@H]3CN(C(=O)C(C)(C)O)CC[C@@H]3NC(=O)c3cc4cc(Cl)ccc4[nH]3)sc2C1 (relative stereo) [Example 149, N-[(3R*,4S*)-4-{[(5-Chloroindol-2-yl)carbonyl]amino}-1-(2-hydroxy-2-methylpropanoyl)piperidin-3-yl]-5-methyl-4,5,6,7-tetrahydrothiazolo[5,4-c]pyridine-2-carboxamide] | –

The next lines start with the molecule.

Compound | melting point | other results
CN1CCc2nc(C(=O)N[C@@H]3CN(C(=O)C(F)(F)F)CC[C@@H]3NC(=O)c3cc4cc(Cl)ccc4[nH]3)sc2C1 (relative stereo) (as salt: hydrochloride) [Example 137, N-[(3R*,4S*)-4-{[(5-Chloroindol-2-yl)carbonyl]amino}-1-(2,2,2-trifluoroacetyl)piperidin-3-yl]-5-methyl-4,5,6,7-tetrahydrothiazolo[5,4-c]pyridine-2-carboxamide hydrochloride] | 262 to 267 °C (dec.) | –
CN1CCc2nc(C(=O)N[C@@H]3CN(C(=O)C4CC4)CC[C@@H]3NC(=O)c3cc4cc(Cl)ccc4[nH]3)sc2C1 (relative stereo) (as salt: hydrochloride) [Example 138, N-[(3R*,4S*)-4-{[(5-Chloroindol-2-yl)carbonyl]amino}-1-(cyclopropylcarbonyl)piperidin-3-yl]-5-methyl-4,5,6,7-tetrahydrothiazolo[5,4-c]pyridine-2-carboxamide hydrochloride] | 280 to 286 °C (dec.) | –
COCC(=O)N1CC[C@H](NC(=O)c2cc3cc(Cl)ccc3[nH]2)[C@H](NC(=O)c2nc3c(s2)CN(C)CC3)C1 (relative stereo) (as salt: hydrochloride) [Example 143, N-[(3R*,4S*)-4-{[(5-Chloroindol-2-yl)carbonyl]amino}-1-(2-methoxyacetyl)piperidin-3-yl]-5-methyl-4,5,6,7-tetrahydro-thiazolo[5,4-c]pyridine-2-carboxamide hydrochloride] | 214 to 228 °C (dec.) | –
CN1CCc2nc(C(=O)N[C@H]3CCC[C@@H]3NC(=O)c3cc4cc(Cl)ccc4[nH]3)sc2C1 (relative stereo) [Example 3, N-((1R*,2R*)-2-{[(5-Chloroindol-2-yl)carbonyl]amino}-cyclopentyl)-5-methyl-4,5,6,7-tetrahydrothiazolo[5,4-c]-pyridine-2-carboxamide hydrochloride] | – | pIC50 [1]: 7.07
CN1CCc2nc(C(=O)N[C@@H]3CCCC[C@@H]3NC(=O)c3ccc4cc(Cl)ccc4c3)sc2C1 (relative stereo) [Example 7, N-{(1R*,2S*)-2-[(6-Chloronaphthoyl)amino]cyclohexyl}-5-methyl-4,5,6,7-tetrahydrothiazolo[5,4-c]pyridine-2-carboxamide hydrochloride] | – | pIC50 [1, 2]: 7.08
CN1CCc2nc(C(=O)N[C@@H]3CCCC[C@@H]3NC(=O)c3cc4cc(Br)ccc4[nH]3)sc2C1 (relative stereo) [Example 11, N-((1R*,2S*)-2-{[(5-Bromoindol-2-yl)carbonyl]amino}-cyclohexyl)-5-methyl-4,5,6,7-tetrahydrothiazolo[5,4-c]-pyridine-2-carboxamide hydrochloride] | – | pIC50 [1, 2]: 7.04
CN1CCc2nc(C(=O)N[C@@H]3CCN(C(=O)OC(C)(C)C)C[C@@H]3NC(=O)c3cc4cc(Cl)ccc4[nH]3)sc2C1 (relative stereo) [Example 119, tert-Butyl (3R*,4S*)-3-{[(5-chloroindol-2-yl)carbonyl]-amino}-4-{[(5-methyl-4,5,6,7-tetrahydrothiazolo[5,4-c]-pyridin-2-yl)carbonyl]amino}piperidine-1-carboxylate] | 187 to 189 °C (dec.) | –
CN1CCc2nc(C(=O)N[C@@H]3CN(C(=O)C(C)(C)CO)CC[C@@H]3NC(=O)c3cc4cc(Cl)ccc4[nH]3)sc2C1 (relative stereo) [Example 146, N-[(3R*,4S*)-4-{[(5-chloroindol-2-yl)carbonyl]amino}-1-(3-hydroxy-2,2-dimethylpropanoyl)piperidin-3-yl)-5-methyl-4,5,6,7-tetrahydrothiazolo[5,4-c]pyridine-2-carboxamide] | 220 °C (dec.) | –
COCC(C)(C)C(=O)N1CC[C@H](NC(=O)c2cc3cc(Cl)ccc3[nH]2)[C@H](NC(=O)c2nc3c(s2)CN(C)CC3)C1 (relative stereo) [Example 147, N-[(3R*,4S*)-4-{[(5-chloroindol-2-yl)carbonyl]amino}-1-(3-methoxy-2,2-dimethylpropanoyl)piperidin-3-yl)-5-methyl-4,5,6,7-tetrahydrothiazolo[5,4-c]pyridine-2-carboxamide] | 240 °C (dec.) | –
CC(=O)OC(C)(C)C(=O)N1CC[C@H](NC(=O)c2cc3cc(Cl)ccc3[nH]2)[C@H](NC(=O)c2nc3c(s2)CN(C)CC3)C1 (relative stereo) [Example 148, 2-((3R*,4S*)-4-{[(5-Chloroindol-2-yl)carbonyl]amino}-3-{[(5-methyl-4,5,6,7-tetrahydrothiazolo[5,4-c]pyridin-2-yl)carbonyl]amino}piperidin-1-yl)-1,1-dimethyl-2-oxoethyl acetate] | 190 °C (dec.) | –
CN1CCc2nc(C(=O)N[C@@H]3CN(C(=O)OC(C)(C)C)C[C@H]3NC(=O)c3cc4cc(Cl)ccc4[nH]3)sc2C1 [Example 94, tert-Butyl (3R,4R)-3-{[(5-chloroindol-2-yl)carbonyl]-amino}-4-{[(5-methyl-4,5,6,7-tetrahydrothiazolo[5,4-c]-pyridin-2-yl)carbonyl]amino}pyrrolidine-1-carboxylate] | 190 to 192 °C | –
